Reference: patent US7371874B2, “6-Alkylamino-2-methyl-2′-(N-methyl substituted sulfonamido)methyl-2H-1-benzopyran derivative as anti-inflammatory inhibitor” (Korea Research Institute of Chemical Technology, priority 2005, dated 2008)

Molecular target: T1, 5-LO (Homo sapiens, UniProt P09917)
T1 construct: made in house; host or cells: insect cells (crude lysate)
T1 sequence (P09917 1-674): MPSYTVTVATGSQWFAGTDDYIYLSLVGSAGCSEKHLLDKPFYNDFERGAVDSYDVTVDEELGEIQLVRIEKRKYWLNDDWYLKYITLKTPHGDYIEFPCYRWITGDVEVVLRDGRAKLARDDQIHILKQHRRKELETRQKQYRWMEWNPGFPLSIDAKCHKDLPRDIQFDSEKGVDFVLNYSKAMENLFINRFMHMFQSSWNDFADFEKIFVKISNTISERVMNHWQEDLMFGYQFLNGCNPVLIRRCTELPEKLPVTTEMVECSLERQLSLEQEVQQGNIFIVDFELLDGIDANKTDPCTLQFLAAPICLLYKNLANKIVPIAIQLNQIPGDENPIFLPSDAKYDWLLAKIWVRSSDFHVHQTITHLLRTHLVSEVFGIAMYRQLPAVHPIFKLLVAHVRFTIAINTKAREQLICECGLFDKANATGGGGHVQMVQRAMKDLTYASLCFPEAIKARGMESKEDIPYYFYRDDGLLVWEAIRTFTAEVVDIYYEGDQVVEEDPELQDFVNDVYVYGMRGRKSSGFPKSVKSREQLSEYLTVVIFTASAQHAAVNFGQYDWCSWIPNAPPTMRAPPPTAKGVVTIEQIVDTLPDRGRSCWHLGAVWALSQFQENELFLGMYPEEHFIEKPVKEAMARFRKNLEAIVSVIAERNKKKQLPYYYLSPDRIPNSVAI
Assay: 5-Lipoxygenase enzyme assay, bioassay using FOX reagent
Assay type: biochemical
Conditions: test compound 1 μM; lysate from 5-LO expressed insect cells; arachidonic acid 40 μM
Protocol: 1. 5-Lipoxygenase enzyme assay
1) Bioassay Using FOX Reagent
Each test compound (final concentration=1 μM) was added to a lysate (7 μg) obtained from 5-LO expressed insect cells and reaction was performed at room temperature for 3 minutes. Then, arachidonic acid (40 μM) was added as enzyme substrate and reaction was further performed at room temperature for 4 minutes. 100 μL of a FOX reagent (sulfuric acid 25 mM, xylenol orange 100 μM, FeSO4 100 μM, methanol/water=9:1) was added thereto and then, after 5 minutes, absorbance was measured at 575 nm.

In order of falling “5-LO enzyme assay (% inhibition, at 1 μM)” value:
1. CN(CC1(C)C=Cc2cc(NCc3ccc(F)cc3)ccc2O1)S(=O)(=O)c1ccccc1 (centres unmarked) [1-1-10]  87%
2. COc1ccc(CNc2ccc3c(c2)C=CC(C)(CN(C)S(=O)(=O)c2ccccc2)O3)cc1 (centres unmarked) [1-1-1]  86%
3. CN(CC1(C)C=Cc2cc(NCc3ccc(C#N)cc3)ccc2O1)S(=O)(=O)c1ccccc1 (centres unmarked) [1-1-7]  80%
4. Cc1cc2c(cc1NCc1cccs1)C=CC(C)(CN(C)S(=O)(=O)c1ccccc1)O2 (centres unmarked) [1-2-23]  80%
5. Cc1ccc(CNc2ccc3c(c2)C=CC(C)(CN(C)S(=O)(=O)c2ccc(F)cc2)O3)s1 (centres unmarked) [1-1-256]  79%
6. Cc1cc2c(cc1NCc1ccc(C#N)cc1)C=CC(C)(CN(C)S(=O)(=O)c1ccccc1)O2 (centres unmarked) [1-2-7]  79%
7. CN(CC1(C)C=Cc2cc(NCc3cccc(F)c3)ccc2O1)S(=O)(=O)c1ccccc1 (centres unmarked) [1-1-11]  73%
8. CCCS(=O)(=O)N(C)CC1(C)C=Cc2cc(NCc3ccc(OC)cc3)ccc2O1 (centres unmarked) [1-1-298]  73%
9. COc1ccc(CNc2ccc3c(c2)C=CC(C)(CN(C)S(=O)(=O)c2ccc(Cl)cc2)O3)cc1 (centres unmarked) [1-1-217]  70%
10. COc1ccc(CNc2ccc3c(c2)C=CC(C)(CN(C)S(=O)(=O)c2ccc(F)cc2)O3)cc1 (centres unmarked) [1-1-244]  67%
11. CCOC(OCC)c1ccc(CNc2ccc3c(c2)C=CC(C)(CN(C)S(=O)(=O)c2ccc(C)cc2)O3)cc1 (centres unmarked) [1-1-103]  63%
12. COc1ccc(CNc2ccc3c(c2)C=CC(C)(CN(C)S(=O)(=O)Cc2ccccc2)O3)cc1 (centres unmarked) [1-1-163]  61%
13. COc1ccc(S(=O)(=O)N(C)CC2(C)C=Cc3cc(NCc4ccsc4)ccc3O2)cc1 (centres unmarked) [1-1-51]  48%
14. CN(CC1(C)C=Cc2cc(NCc3ccsc3)ccc2O1)S(=O)(=O)c1ccc(C(C)(C)C)cc1 (centres unmarked) [1-1-132]  47%
15. COc1ccc(S(=O)(=O)N(C)CC2(C)C=Cc3cc(NCc4ccc(C)s4)ccc3O2)cc1 (centres unmarked) [1-1-40]  45%

In order of falling inhibition at 1 µM:
1. CN(CC1(C)C=Cc2cc(NCc3ccncc3)ccc2O1)S(=O)(=O)Cc1ccccc1 (centres unmarked) [1-1-183]  45%
2. CN(CC1(C)C=Cc2cc(NCc3ccsc3)ccc2O1)S(=O)(=O)c1ccccc1 (centres unmarked) [1-1-24]  44%

System: LTB4 in Rat basophilic leukemia (RBL-1) cells
Assay: LTB4 cell-based assay (RBL-1 cells, A23187, ELISA)
Conditions: A23187 10 μM, LTB4 by ELISA
Protocol: Rat basophilic leukemia (RBL-1) cells were inoculated at a 24-well plate to a final concentration of 7.5×10^5 cells/well and incubated for 2 hours, so that they adhered to the bottom of the plate. […] The well plate was centrifuged at 1,500 g for 20 minutes to isolate the supernatant and then the amount of LTB4 of the supernatant was measured with ELISA analysis.

In order of rising “Cell-based assay (% inhibition, at 1 μM)” value:
1. CN(CC1(C)C=Cc2cc(NCc3ccsc3)ccc2O1)S(=O)(=O)c1ccc(C(C)(C)C)cc1 (centres unmarked) [1-1-132]  35%
2. COc1ccc(S(=O)(=O)N(C)CC2(C)C=Cc3cc(NCc4ccsc4)ccc3O2)cc1 (centres unmarked) [1-1-51]  36%
3. COc1ccc(S(=O)(=O)N(C)CC2(C)C=Cc3cc(NCc4ccc(C)s4)ccc3O2)cc1 (centres unmarked) [1-1-40]  38%
4. COc1ccc(CNc2ccc3c(c2)C=CC(C)(CN(C)S(=O)(=O)c2ccc(F)cc2)O3)cc1 (centres unmarked) [1-1-244]  41%
5. COc1ccc(CNc2ccc3c(c2)C=CC(C)(CN(C)S(=O)(=O)Cc2ccccc2)O3)cc1 (centres unmarked) [1-1-163]  43%
6. CCCS(=O)(=O)N(C)CC1(C)C=Cc2cc(NCc3ccc(OC)cc3)ccc2O1 (centres unmarked) [1-1-298]  47%
7. CCOC(OCC)c1ccc(CNc2ccc3c(c2)C=CC(C)(CN(C)S(=O)(=O)c2ccc(C)cc2)O3)cc1 (centres unmarked) [1-1-103]  52%
8. COc1ccc(CNc2ccc3c(c2)C=CC(C)(CN(C)S(=O)(=O)c2ccc(Cl)cc2)O3)cc1 (centres unmarked) [1-1-217]  56%
9. CN(CC1(C)C=Cc2cc(NCc3cccc(F)c3)ccc2O1)S(=O)(=O)c1ccccc1 (centres unmarked) [1-1-11]  58%
10. Cc1cc2c(cc1NCc1ccc(C#N)cc1)C=CC(C)(CN(C)S(=O)(=O)c1ccccc1)O2 (centres unmarked) [1-2-7]  61%
11. Cc1ccc(CNc2ccc3c(c2)C=CC(C)(CN(C)S(=O)(=O)c2ccc(F)cc2)O3)s1 (centres unmarked) [1-1-256]  63%
12. CN(CC1(C)C=Cc2cc(NCc3ccc(C#N)cc3)ccc2O1)S(=O)(=O)c1ccccc1 (centres unmarked) [1-1-7]  71%
13. Cc1cc2c(cc1NCc1cccs1)C=CC(C)(CN(C)S(=O)(=O)c1ccccc1)O2 (centres unmarked) [1-2-23]  74%
14. CN(CC1(C)C=Cc2cc(NCc3ccc(F)cc3)ccc2O1)S(=O)(=O)c1ccccc1 (centres unmarked) [1-1-10]  81%
15. COc1ccc(CNc2ccc3c(c2)C=CC(C)(CN(C)S(=O)(=O)c2ccccc2)O3)cc1 (centres unmarked) [1-1-1]  82%

System: Mouse ear edema
Assay: In vivo bioassay (mouse ear edema model, arachidonic acid)
Parameters: species or system ICR mouse
Conditions: oral in 0.5% methylcellulose 1 hour before arachidonic acid; ear thickness after 1 hour, compared with control
Protocol: 3. In Vivo Bioassay (Mouse Ear Edema Model)
The inside of the right ear of an ICR mouse (6 weeks old) was treated with 2 mg of arachidonic acid dissolved in 20 μL of acetone for 1 hour to induce an inflammation.
After 1 hour, the difference of thickness T (%) between the arachidonic acid-treated right ear and the non-treated left ear was measured with a microgauge.
Further, myeloperoxidase (MPO) activity was measured in order to measure the amount of neutrophil penetrated into the tissue as a primary marker for induced inflammation. The tissue obtained from the arachidonic acid-treated right ear was homogenized in a 50 mM phosphate buffer solution (pH 6.0) containing 0.5% hexadecyltrimethylammonium bromide (HTAB), centrifuged and then the MPO activity (MPO %) of the supernatant was measured.
To measure in vivo activity of each test compound, each compound was dissolved in 0.5% methylcellulose (10 mL/kg) and orally administered to a mouse 1 hour before treatment with arachidonic acid. Then, arachidonic acid was treated for 1 hour and the thickness of ear and MPO activity were measured. In vivo activity of each test compound was estimated by comparing the test result with that of a control which was treated only with arachidonic acid, without the test compound.

With COc1ccc(CNc2ccc3c(c2)C=CC(C)(CN(C)S(=O)(=O)c2ccccc2)O3)cc1 (centres unmarked) [1-1-1] the “Mouse ear edema model (in vivo assay): Thickness” value (“Mouse ear edema model … Thickness” for short) was “Thickness 62%”.
With CN(CC1(C)C=Cc2cc(NCc3ccc(F)cc3)ccc2O1)S(=O)(=O)c1ccccc1 (centres unmarked) [1-1-10] the “Mouse ear edema model … Thickness” value was “Thickness 60%”.

CC(c1cc2ccccc2s1)N(O)C(N)=O (centres unmarked) [reference compound] was tested, and the “Mouse ear edema model … Thickness” value was 67%.

Same assay, conditions: oral in 0.5% methylcellulose 1 hour before arachidonic acid; myeloperoxidase activity of ear tissue, compared with control

COc1ccc(CNc2ccc3c(c2)C=CC(C)(CN(C)S(=O)(=O)c2ccccc2)O3)cc1 (centres unmarked) [1-1-1] was tested, and the “Mouse ear edema model (in vivo assay): MPO” value (“Mouse ear edema model … MPO” below) was “MPO 34%”.
With CN(CC1(C)C=Cc2cc(NCc3ccc(F)cc3)ccc2O1)S(=O)(=O)c1ccccc1 (centres unmarked) [1-1-10] the “Mouse ear edema model … MPO” value was “MPO 27%”.

CC(c1cc2ccccc2s1)N(O)C(N)=O (centres unmarked) [reference compound] was tested, and the “Mouse ear edema model … MPO” value was 38%.
